The values below come from patent publication US5604226A, “Pyridazinone derivatives, processes for production thereof and use thereof” (Nihon Nohyaku Co., Ltd., priority 1993, dated 1997).

The inhibition is the percentage by which the read-out fell short of the control.

The test system of assay [1] is Platelet aggregation (ADP, rabbit platelet rich plasma). The experiment in a line: Platelet aggregation inhibition in rabbit PRP, ADP-induced, Born's turbidimetry (Experiment 1). The settings on record: Oryctolagus cuniculus, 0.05 h, ADP 2 to 4 μM, 3 min incubation, read-out: Aggregation Inhibition Rate; for inhibition at 1 µg/mL: 10^-6 g/ml; for inhibition at 0.1 µg/mL: 10^-7 g/ml. In kind it is cell-based. The method, then:
Blood was collected from the ear vein of rabbit, together with 1/10 volume sodium citrate. Centrifugation at 1,200 rpm for 10 minutes gave the supernatant which was made platelet rich plasma (PRP). The blood was further centrifuged at 3,000 rpm for 10 minutes to give platelet poor plasma (PPP). The platelet count of PRP was adjusted to 300,000/μl with PPP, which was provided for the test. Platelet aggregation was determined with aggregometer (HEMATRACERVI, Niko Bioscience Co.) based on Born's turbidimetry. That is, 200 μl of PRP was charged in a cell and 1 μl of a drug solution dissolved in dimethylsulfoxide was added thereto. After incubation for 3 minutes, ADP was added in a concentration of 2 to 4 μM to cause aggregation. Change in transmittance in the cell was then monitored. The results are shown in Table 2, in terms of aggregation inhibition rate which was determined by comparing a transmittance of control with that obtained at the maximum aggregation on an aggregation curve when the transmittance of PRP was made 0% and the transmittance of PPP was made 100%.

Assay [2] concerns thrombocytopenia in mice (collagen-induced, platelet count). The assay is described as follows: Activity of preventing thrombocytopenia in mice, collagen i.v. (Experiment 3). Type of assay: in vivo, male ddY mice. The following applies: Mus musculus, 3.0 mg/kg oral, 1 hour before collagen 0.5 mg/kg i.v., * p = 5%, ** p = 1%, *** p = 0.1%, read-out: Average Inhibition Rate (platelet count; normal mouse 100, control mouse 0). The method, then: Activity of preventing thrombocytopenia in mice:
Collagen (Holm Co.) diluted with physiological saline was intravenously given through the vein to male ddY mice of 6 weeks old, weighing 28-31 g, which had been fasted for 4-5 hours, in a dose of 0.5 mg/kg. Five minutes after, blood was collected from the lower thigh vein under pentobarbital anesthesia through a plastic syringe treated with heparin containing 3.8% sodium citrate. The drug was orally given an hour before the collagen administration. The platelet count was measured with Sysmex E-4000. The inhibition activity is shown in terms of percentage of the platelet count when the platelet count of normal mouse was made 100 and the platelet count of control mouse was made 0.

On to `O=c1[nH]nc(OCCCc2ccccc2)c(NCc2cccnc2)c1Br` [Comparative Compound A, reference compound], for which, in assay [1], the inhibition at 1 µg/mL came out at 100% and the inhibition at 0.1 µg/mL was determined as 84%.

Turning to `COc1ccc(CNc2c(OCCOc3ccccc3)n[nH]c(=O)c2Br)cc1OC` [Comparative Compound B, reference compound], the inhibition at 0.1 µg/mL in assay [1] stood at 79%.

Turning to `O=c1[nH]nc(OCCSc2ccccc2)c(NCc2cccnc2)c1Cl` [Compound 1], in assay [1], the inhibition at 1 µg/mL is 100% and the inhibition at 0.1 µg/mL was 37%.

Regarding `O=c1[nH]nc(OCCCSc2ccccc2)c(NCc2cccnc2)c1Cl` [Compound 2, 4-chloro-6-[3-(phenylthio)propyloxy]-5-(3-picolylamino)-3(2H)-pyridazinone], in assay [1], the inhibition at 1 µg/mL came to 100% and the inhibition at 0.1 µg/mL turned out to be 27%.

In the case of `COc1ccc(CNc2c(OCCSc3ccccc3)n[nH]c(=O)c2Cl)cc1OC` [Compound 4], in assay [1], the inhibition at 1 µg/mL was 100% and the inhibition at 0.1 µg/mL worked out at 100%.

On to `COc1ccc(CNc2c(OCCSc3ccccc3)n[nH]c(=O)c2Br)cc1OC` [Compound 6, 4-bromo-5-(3,4-dimethoxyphenylmethyl-amino)-6-[2-(phenylthio)ethyloxy]-3(2H)-pyridazinone], for which, in assay [1], the inhibition at 1 µg/mL worked out at 100% and the inhibition at 0.1 µg/mL was found to be 100%. Further, the inhibition in vivo at 3 mg/kg in assay [2] was determined as 33%.

For `COc1ccc(CNc2c(OCCCSc3ccccc3)n[nH]c(=O)c2Br)cc1OC` [Compound 7], in assay [1], the inhibition at 1 µg/mL was 100% and the inhibition at 0.1 µg/mL amounted to 74%.

For the compound `COc1ccc(CNc2c(OCCS(=O)(=O)c3ccccc3)n[nH]c(=O)c2Br)cc1OC` [Compound 10, 4-bromo-5-(3,4-dimethoxyphenylmethylamino)-6-[2-(phenylsulfonyl)ethyloxy]-3(2H)-pyridazinone], the inhibition at 0.1 µg/mL in assay [1] amounted to 100%.

With `COc1ccc(CNc2c(OCCCS(=O)(=O)c3ccccc3)n[nH]c(=O)c2Br)cc1OC` [Compound 11], in assay [1], the inhibition at 0.1 µg/mL turned out to be 71%.

As for `COc1ccc(CNc2c(OCCSc3ccccc3)nn(CN3CCOCC3)c(=O)c2Br)cc1OC` [Compound 12], the inhibition at 0.1 µg/mL in assay [1] came to 100%. The inhibition in vivo at 3 mg/kg in assay [2] worked out at 43%.

On to `COc1ccc(CNc2c(OCC[S+]([O-])c3ccccc3)nn(CN3CCOCC3)c(=O)c2Br)cc1OC` (stereo not drawn) [Compound 13], for which the inhibition at 0.1 µg/mL in assay [1] amounted to 100%.

`COc1ccc(CNc2c(OCCSc3ccc(F)cc3)n[nH]c(=O)c2Br)cc1OC` [Compound 14, 4-bromo-5-(3,4-dimethoxyphenylmethylamino)-6-[2-(4fluorophenylthio)ethyloxy]-3(2H)-pyridazinone]: the inhibition at 0.1 µg/mL in assay [1] is 100%. In addition, the inhibition in vivo at 3 mg/kg in assay [2] came to 23.3%.

Consider `COc1ccc(CNc2c(OCC[S+]([O-])c3ccc(F)cc3)n[nH]c(=O)c2Br)cc1OC` (stereo not drawn) [Compound 15, 4-bromo-5-(3,4-dimethoxyphenylmethyl-amino)-6-[2-(4-fluorophenylsulfinyl)ethyloxy]-3(2H)-pyridazinone], for which, in assay [1], the inhibition at 0.1 µg/mL worked out at 100%. For the same compound, the inhibition in vivo at 3 mg/kg in assay [2] was 52.4%.

Take `COc1ccc(CNc2c(OCCS(=O)(=O)c3ccc(F)cc3)n[nH]c(=O)c2Br)cc1OC` [Compound 16, 4-bromo-6-[2-(4-fluorophenylsulfonyl)ethyloxy]-5-(3,4-dimethoxyphenylmethylamino)-3(2H)-pyridazinone]: the inhibition at 0.1 µg/mL in assay [1] stood at 100%. Further, in assay [2], the inhibition in vivo at 3 mg/kg was 35.7%.

`COc1ccc(CNc2c(OCCSc3ccc(F)cc3)nn(CN3CCN(C)CC3)c(=O)c2Br)cc1OC` [Compound 17, 4-bromo-5-(3,4-dimethoxyphenylmethylamino)-6-[2-(4-fluorophenylthio)ethyloxy]-2-(4-methylpiperazinlylmethyl)-3(2H)-pyridazinone]: in assay [1], the inhibition at 0.1 µg/mL is 100%.

`COc1ccc(CNc2c(OCCSc3ccccc3Cl)n[nH]c(=O)c2Br)cc1OC` [Compound 18]: the inhibition at 0.1 µg/mL in assay [1] came to 100%. In assay [2], the inhibition in vivo at 3 mg/kg worked out at 30.1%.

As to `COc1ccc(CNc2c(OCC[S+]([O-])c3ccccc3Cl)n[nH]c(=O)c2Br)cc1OC` (stereo not drawn) [Compound 19, 4-bromo-6-[2-(2-chlorophenylsulfinyl)ethyloxy]-5-(3,4-dimethoxyphenylmethylamino)-3(2H)-pyridazinone], in assay [1], the inhibition at 0.1 µg/mL worked out at 100%. In addition, in assay [2], the inhibition in vivo at 3 mg/kg worked out at 33.8%.

For the compound `COc1ccc(CNc2c(OCCSc3cccc(Cl)c3)n[nH]c(=O)c2Br)cc1OC` [Compound 20], in assay [1], the inhibition at 1 µg/mL came to 100% and the inhibition at 0.1 µg/mL came to 90%.

As for `O=c1[nH]nc(OCCSc2ccc(Cl)cc2)c(NCc2cccnc2)c1Cl` [Compound 23], in assay [1], the inhibition at 1 µg/mL came to 100% and the inhibition at 0.1 µg/mL was 100%.

Consider `COc1ccc(CNc2c(OCCSc3ccc(Cl)cc3)n[nH]c(=O)c2Cl)cc1OC` [Compound 24], for which, in assay [1], the inhibition at 1 µg/mL was determined as 100% and the inhibition at 0.1 µg/mL is 100%.

With `Cc1ccc(SCCOc2n[nH]c(=O)c(Cl)c2NCc2cccnc2)cc1` [Compound 27], in assay [1], the inhibition at 1 µg/mL turned out to be 100% and the inhibition at 0.1 µg/mL worked out at 80%.

`COc1ccc(CNc2c(OCCSc3ccc(C)cc3)n[nH]c(=O)c2Cl)cc1OC` [Compound 28]: in assay [1], the inhibition at 1 µg/mL turned out to be 100% and the inhibition at 0.1 µg/mL amounted to 100%.

Take `COc1ccc(CNc2c(OCC[S+]([O-])c3ccc(C)cc3)n[nH]c(=O)c2Cl)cc1OC` (stereo not drawn) [Compound 29]: in assay [1], the inhibition at 1 µg/mL amounted to 100% and the inhibition at 0.1 µg/mL worked out at 100%.

Consider `COc1ccc(CNc2c(OCC[S+]([O-])c3ccc(C)cc3)n[nH]c(=O)c2Br)cc1OC` (stereo not drawn) [Compound 30, 4-bromo-5-(3,4-dimethoxyphenylmethylamino)-6-[2-(p-tolylsulfinyl)ethyloxy]-3(2H)-pyridazinone], for which, in assay [1], the inhibition at 1 µg/mL was 100% and the inhibition at 0.1 µg/mL is 100%.

For the compound `COc1ccc(CNc2c(OCCSc3ccc(C)cc3C)n[nH]c(=O)c2Br)cc1OC` [Compound 31, 4-bromo-5-(3,4-dimethoxyphenylmethylamino)-6-[2-(2,4-dimethylphenylthio)ethyloxy]-3(2H)-pyridazinone], in assay [1], the inhibition at 0.1 µg/mL came out at 100%.

`COc1ccc(CNc2c(OCC[S+]([O-])c3ccc(C)cc3C)n[nH]c(=O)c2Br)cc1OC` (stereo not drawn) [Compound 32, 4-bromo-5-(3,4-dimethoxyphenylmethyl-amino)-6-[2-(2,4-dimethylphenylsulfinyl)ethyloxy]-3(2H)pyridazinone]: in assay [1], the inhibition at 0.1 µg/mL was 100%.

For the compound `COc1ccc(CNc2c(OCCS(=O)(=O)c3ccc(C)cc3C)n[nH]c(=O)c2Br)cc1OC` [Compound 33, 4-bromo-5-(3,4-dimethoxyphenylmethyl-amino)-6-[2-(2,4-dimethylphenylsulfonyl)ethyloxy]-3(2H)-pyridazinone], in assay [1], the inhibition at 0.1 µg/mL worked out at 100%.

On to `COc1ccc(SCCOc2n[nH]c(=O)c(Cl)c2NCc2cccnc2)cc1` [Compound 34], for which, in assay [1], the inhibition at 1 µg/mL is 100% and the inhibition at 0.1 µg/mL came out at 64%.

With `COc1ccc(SCCOc2n[nH]c(=O)c(Cl)c2NCc2ccc(OC)c(OC)c2)cc1` [Compound 35], in assay [1], the inhibition at 1 µg/mL stood at 100% and the inhibition at 0.1 µg/mL is 83%.

`COc1ccc(S(=O)(=O)CCOc2n[nH]c(=O)c(Cl)c2NCc2ccc(OC)c(OC)c2)cc1` [Compound 36]: in assay [1], the inhibition at 1 µg/mL was determined as 100% and the inhibition at 0.1 µg/mL came out at 83%.

On to `COc1ccc(CNc2c(OCCSc3ccc(C#N)cc3)n[nH]c(=O)c2Br)cc1OC` [Compound 37], for which, in assay [1], the inhibition at 1 µg/mL was found to be 100% and the inhibition at 0.1 µg/mL worked out at 100%. The inhibition in vivo at 3 mg/kg in assay [2] was 35.4%.

Consider `COc1ccc(CNc2c(OCC[S+]([O-])c3ccc(C#N)cc3)n[nH]c(=O)c2Br)cc1OC` (stereo not drawn) [Compound 38], for which the inhibition at 0.1 µg/mL in assay [1] was found to be 100%. For the same compound, in assay [2], the inhibition in vivo at 3 mg/kg turned out to be 21.8%.

As for `COc1ccc(CNc2c(OCCSc3ccc([N+](=O)[O-])cc3)n[nH]c(=O)c2Br)cc1OC` [Compound 39, 4-bromo-5-(3,4-dimethoxyphenylmethylamino)-6-[2-(4-nitrophenylthio)ethyloxy]-3(2H)-pyridazinone], in assay [1], the inhibition at 1 µg/mL was 100% and the inhibition at 0.1 µg/mL came to 93%. The inhibition in vivo at 3 mg/kg in assay [2] turned out to be 30.4%.

As to `COc1ccc(CNc2c(OCC[S+]([O-])c3ccc([N+](=O)[O-])cc3)n[nH]c(=O)c2Br)cc1OC` (stereo not drawn) [Compound 40], the inhibition in vivo at 3 mg/kg in assay [2] amounted to 40.8%.

As for `CCN(CC)C(=O)c1ccc(SCCOc2n[nH]c(=O)c(Br)c2NCc2ccc(OC)c(OC)c2)cc1` [Compound 41], the inhibition at 0.1 µg/mL in assay [1] is 100%.
